Experimental data published in patent publication US10336702B2, “Pharmaceutically active compounds” (BERGENBIO ASA, priority 2015, dated 2019).

Experiments:
[1] = target: T1, Akt1 (Homo sapiens, UniProt P31749); test: Akt activation assay (PDK1-mediated activation, LANCE Ultra crosstide TR-FRET), Akt1; assay type: biochemical; details: read-out: Biological Assay 1 IC50 (nM) Akt1
T1 construct: unspecified tag, removed (detagged) (cleaved yes); purchased SignalChem and Proteros (Akt1); Merck Millipore (PDK1) 14-452 (PDK1); none given for Akt1
T1 sequence (P31749 whole entry): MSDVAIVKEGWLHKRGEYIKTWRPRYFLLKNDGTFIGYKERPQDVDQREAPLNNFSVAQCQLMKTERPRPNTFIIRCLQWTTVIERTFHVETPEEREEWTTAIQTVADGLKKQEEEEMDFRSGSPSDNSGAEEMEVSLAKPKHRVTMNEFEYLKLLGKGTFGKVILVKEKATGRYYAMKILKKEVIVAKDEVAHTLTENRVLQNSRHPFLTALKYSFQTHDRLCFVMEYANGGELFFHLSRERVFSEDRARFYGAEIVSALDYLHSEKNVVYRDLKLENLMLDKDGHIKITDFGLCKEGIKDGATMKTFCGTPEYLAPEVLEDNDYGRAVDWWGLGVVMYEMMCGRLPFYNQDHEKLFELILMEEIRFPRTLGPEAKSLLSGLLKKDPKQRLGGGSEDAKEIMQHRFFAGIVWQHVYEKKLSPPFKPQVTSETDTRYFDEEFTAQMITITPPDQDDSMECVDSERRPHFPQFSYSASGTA
Procedure, shortened: (§1)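 This TR-FRET readout (Eu-anti-phospho-crosstide antibody, 665/615 nm) measured PDK1-driven activation of Akt. Compound was first preincubated with each Akt isoform: Akt1 5 nM; Akt2 15 nM SignalChem or 5 nM Proteros; Akt3 3 nM SignalChem or 5 nM Proteros. Reactions then ran 30 min with 5 nM PDK1, lipid vesicles containing 0.55 µM PtdIns(3,4,5)P3, 100 µM ATP and 100 nM crosstide at pH 7.5, and IC50 came from a 4-parameter equation.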

[2] = target: T2, Akt2 (Homo sapiens, UniProt P31751); test: Akt activation assay (PDK1-mediated activation, LANCE Ultra crosstide TR-FRET), Akt2; assay type: biochemical; details: read-out: Biological Assay 1 IC50 (nM) Akt2
T2 construct: unspecified tag, removed (detagged) (cleaved yes); purchased SignalChem and Proteros (Akt2); Merck Millipore (PDK1) 14-452 (PDK1); none given for Akt2
T2 sequence (P31751 whole entry): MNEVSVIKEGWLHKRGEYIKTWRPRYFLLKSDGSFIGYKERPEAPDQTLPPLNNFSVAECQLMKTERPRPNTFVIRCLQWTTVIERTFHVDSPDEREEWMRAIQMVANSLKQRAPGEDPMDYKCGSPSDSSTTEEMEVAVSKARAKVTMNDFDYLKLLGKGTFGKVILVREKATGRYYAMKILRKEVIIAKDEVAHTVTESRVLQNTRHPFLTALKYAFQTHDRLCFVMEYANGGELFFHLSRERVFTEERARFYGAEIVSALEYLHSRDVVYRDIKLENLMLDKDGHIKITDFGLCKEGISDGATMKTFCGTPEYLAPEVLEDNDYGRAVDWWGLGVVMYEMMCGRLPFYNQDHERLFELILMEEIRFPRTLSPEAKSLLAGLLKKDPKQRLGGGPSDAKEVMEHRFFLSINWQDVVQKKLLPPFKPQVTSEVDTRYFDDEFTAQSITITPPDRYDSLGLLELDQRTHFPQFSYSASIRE
Procedure, shortened: as §1

[3] = target: T3, Akt3 (Homo sapiens, UniProt Q9Y243); test: Akt activation assay (PDK1-mediated activation, LANCE Ultra crosstide TR-FRET), Akt3; assay type: biochemical; details: read-out: Biological Assay 1 IC50 (nM) Akt3
T3 construct: unspecified tag, removed (detagged) (cleaved yes); purchased SignalChem and Proteros (Akt3); Merck Millipore (PDK1) 14-452 (PDK1); none given for Akt3
T3 sequence (Q9Y243 whole entry): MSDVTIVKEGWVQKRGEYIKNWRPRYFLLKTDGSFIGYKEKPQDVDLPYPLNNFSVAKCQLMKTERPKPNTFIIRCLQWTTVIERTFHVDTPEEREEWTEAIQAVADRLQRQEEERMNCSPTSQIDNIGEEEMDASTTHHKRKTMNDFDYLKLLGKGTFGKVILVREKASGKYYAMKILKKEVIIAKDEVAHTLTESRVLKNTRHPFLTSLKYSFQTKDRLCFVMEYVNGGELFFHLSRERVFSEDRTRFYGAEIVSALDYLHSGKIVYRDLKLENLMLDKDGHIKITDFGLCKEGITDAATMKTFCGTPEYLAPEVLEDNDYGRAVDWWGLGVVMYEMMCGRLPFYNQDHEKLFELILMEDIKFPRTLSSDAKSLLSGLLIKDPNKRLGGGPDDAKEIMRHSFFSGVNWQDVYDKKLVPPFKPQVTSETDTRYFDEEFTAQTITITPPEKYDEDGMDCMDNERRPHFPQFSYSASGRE
Procedure, shortened: as §1

[4] = target: T4, p-Akt1 in LNCaP cells (Homo sapiens, UniProt P31749); test: Phospho-Akt cellular SureFire assay, p-Akt1 in LNCaP cells; assay type: cell-based; details: read-out: Biological Assay 2 IC50 (nM) Akt1 LNCaP
T4 construct: SureFire assays to detect cellular p-Akt1, p-Akt2 and p-Akt3 levels in WM115 cells (Akt2/3) and LNCaP cells (Akt1); endogenous in cells; host or cells: LNCaP (ECACC 89110211)
T4 sequence (P31749 whole entry): as the sequence (P31749 whole entry) above
Procedure, shortened: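 Phospho-Thr308 Akt1 detected by AlphaScreen SureFire proximity beads in LNCaP lysates after 15 min compound treatment at 37 °C in 0.1% FBS medium, unstimulated, 0.3% DMSO. Cells plated at 5×10^4/well overnight; IC50 from a 4-parameter equation.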

[5] = target: T5, p-Akt2 in WM115 cells (Homo sapiens, UniProt P31751); test: Phospho-Akt cellular SureFire assay, p-Akt2 in WM115 cells; assay type: cell-based; details: insulin stimulated, read-out: Biological Assay 2 IC50 (nM) Akt2 WM115
T5 construct: SureFire assays to detect cellular p-Akt1, p-Akt2 and p-Akt3 levels in WM115 cells (Akt2/3) and LNCaP cells (Akt1); endogenous in cells; host or cells: WM115 (ECACC 91061232), insulin-stimulated
T5 sequence (P31751 whole entry): as the sequence (P31751 whole entry) above
Procedure, shortened: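 Readout is a bead-proximity SureFire assay pairing a pThr308 Akt antibody with a total Akt2 antibody, lysate and beads incubated 2 h plus 2 h at room temperature in the dark. Before lysis, serum-starved WM115 cells received 100 nM insulin (10 min), then test compound (15 min, 0.3% DMSO); IC50 by 4-parameter equation.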

[6] = target: T6, p-Akt3 in WM115 cells (Homo sapiens, UniProt Q9Y243); test: Phospho-Akt cellular SureFire assay, p-Akt3 in WM115 cells; assay type: cell-based; details: insulin stimulated, read-out: Biological Assay 2 IC50 (nM) Akt3 WM115
T6 construct: SureFire assays to detect cellular p-Akt1, p-Akt2 and p-Akt3 levels in WM115 cells (Akt2/3) and LNCaP cells (Akt1); endogenous in cells; host or cells: WM115 (ECACC 91061232), insulin-stimulated
T6 sequence (Q9Y243 whole entry): as the sequence (Q9Y243 whole entry) above
Procedure, shortened: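 pThr308-Akt3 in lysates was quantified by bead-proximity SureFire detection, pairing a phospho-specific antibody with a total Akt3 antibody. Before lysis, WM115 cells in 0.1% FBS medium were treated for 15 min at 37 °C with compound (final DMSO 0.3%), following a 10 min stimulation with 100 nM insulin. IC50 was obtained by 4-parameter fitting.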

CC(=O)N(C)[C@H]1CC[C@H](CC(=O)Nc2cnc(-c3ccc(C(C)(C)N)cc3)c(-c3ccsc3)c2)CC1 [Example 6, N-(6-(4-(2-aminopropan-2-yl)phenyl)-5-(thiophen-3-yl)pyridin-3-yl)-2-(trans-4-(N-methylacetamido)cyclohexyl)acetamide]
IC50 [1]: > 30000 nM | IC50 [2]: > 24000 nM | IC50 [3]: 720 nM | IC50 [4]: > 30000 nM | IC50 [5]: > 21000 nM | IC50 [6]: 340 nM

NC1(c2ccc(-c3ncc(NC(=O)C[C@H]4CC[C@H](N5CCCCC5=O)CC4)cc3-c3ccsc3)cc2)CCC1 [Example A14, N-(6-(4-(1-aminocyclobutyl)phenyl)-5-(thiophen-3-yl)pyridin-3-yl)-2-(trans-4-(2-oxopiperidin-1-yl)cyclohexyl)acetamide]
IC50 [1]: > 30000 nM | IC50 [2]: 1800 nM | IC50 [3]: 170 nM | IC50 [4]: > 30000 nM | IC50 [5]: 3200 nM | IC50 [6]: 80 nM

COC(=O)N(C)[C@H]1CC[C@H](CC(=O)Nc2cc(-c3ccsc3)c(-c3ccc([C@]4(N)C[C@H](F)C4)cc3)nn2)CC1 [Example A70, Methyl (trans-4-(2-((6-(4-(trans-1-amino-3-fluorocyclobutyl)phenyl)-5-(thiophen-3-yl)pyridazin-3-yl)amino)-2-oxoethyl)cyclohexyl)(methyl)carbamate]
IC50 [1]: > 30000 nM | IC50 [2]: 1100 nM | IC50 [3]: 36 nM | IC50 [4]: > 30000 nM | IC50 [5]: > 28000 nM | IC50 [6]: 960 nM

C[C@]1(O)C[C@@](N)(c2ccc(-c3cnc(NC(=O)C[C@H]4CC[C@H](N5CCCC5=O)CC4)cc3-c3ccccc3)cc2)C1 [Example A82, N-(5-(4-(trans-1-amino-3-hydroxy-3-methylcyclobutyl)phenyl)-4-phenylpyridin-2-yl)-2-(trans-4-(2-oxopyrrolidin-1-yl)cyclohexyl)acetamide]
IC50 [1]: 3100 nM | IC50 [2]: 91 nM | IC50 [3]: 7 nM | IC50 [4]: 1800 nM | IC50 [5]: 460 nM | IC50 [6]: 14 nM

CC(=O)N(C)[C@H]1CC[C@H](CC(=O)Nc2cnc(-c3ccc([C@]4(N)C[C@H](F)C4)cc3)c(-c3ccccc3)c2)CC1 [Example 32, N-(6-(4-(trans-1-amino-3-fluorocyclobutyl)phenyl)-5-phenylpyridin-3-yl)-2-(trans-4-(N-methylacetamido)cyclohexyl)acetamide]
IC50 [1]: 2000 nM | IC50 [2]: 470 nM | IC50 [3]: 34 nM | IC50 [4]: 6900 nM | IC50 [5]: 1400 nM | IC50 [6]: 36 nM

CC(C)(N)c1ccc(-c2ncc(NC(=O)C[C@H]3CC[C@H](N4CCOC4=O)CC3)cc2-c2ccccc2)cc1 [Example 42, N-(6-(4-(2-aminopropan-2-yl)phenyl)-5-phenylpyridin-3-yl)-2-(trans-4-(2-oxooxazolidin-3-yl)cyclohexyl)acetamide]
IC50 [1]: > 30000 nM | IC50 [2]: 4500 nM | IC50 [3]: 960 nM | IC50 [4]: > 30000 nM | IC50 [5]: 7900 nM | IC50 [6]: 210 nM

COC(=O)N(C)[C@H]1CC[C@H](CC(=O)Nc2cnc(-c3ccc([C@]4(N)C[C@H](F)C4)cc3)c(-c3ccccc3)c2)CC1 [Example 77, Methyl (trans-4-(2-((6-(4-(trans-1-amino-3-fluorocyclobutyl)phenyl)-5-phenylpyridin-3-yl)amino)-2-oxoethyl)cyclohexyl)(methyl)carbamate]
IC50 [1]: 7900 nM | IC50 [2]: 1100 nM | IC50 [3]: 62 nM | IC50 [4]: > 30000 nM | IC50 [5]: 5100 nM | IC50 [6]: 100 nM

CC(=O)N(C)[C@H]1CC[C@H](CC(=O)Nc2cc(-c3ccsc3)c(-c3ccc([C@]4(N)C[C@](C)(O)C4)cc3)cn2)CC1 [Example 93, N-(5-(4-(trans-1-amino-3-hydroxy-3-methylcyclobutyl)phenyl)-4-(thiophen-3-yl)pyridin-2-yl)-2-(trans-4-(N-methylacetamido)cyclohexyl)acetamide]
IC50 [1]: 3900 nM | IC50 [2]: 320 nM | IC50 [3]: 10 nM | IC50 [4]: 2200 nM | IC50 [5]: 520 nM | IC50 [6]: 9 nM

CCC(=O)N(C)[C@H]1CC[C@H](CC(=O)Nc2cc(-c3ccsc3)c(-c3ccc([C@]4(N)C[C@H](F)C4)cc3)nn2)CC1 [Example 125]
IC50 [1]: > 30000 nM | IC50 [2]: 1500 nM | IC50 [3]: 26 nM | IC50 [4]: > 30000 nM | IC50 [5]: 3000 nM | IC50 [6]: 22 nM

COC(=O)N(C)[C@H]1CC[C@H](C(F)C(=O)Nc2cnc(-c3ccc(C4(N)CCC4)cc3)c(-c3ccccc3)c2)CC1 (relative stereo) [Example 52, Methyl (trans-4-(2-((6-(4-(1-aminocyclobutyl)phenyl)-5-phenylpyridin-3-yl)amino)-1-fluoro-2-oxoethyl)cyclohexyl)(methyl)carbamate]
IC50 [1]: 6100 nM | IC50 [2]: 520 nM | IC50 [3]: 92 nM | IC50 [4]: > 10000 nM | IC50 [5]: 5000 nM | IC50 [6]: 180 nM

N[C@]1(c2ccc(-c3ncc(NC(=O)C[C@H]4CC[C@H](N5CCOC5=O)CC4)cc3-c3ccccc3)cc2)C[C@@H](F)C1 [Example 78, N-(6-(4-(trans-1-amino-3-fluorocyclobutyl)phenyl)-5-phenylpyridin-3-yl)-2-(trans-4-(2-oxooxazolidin-3-yl)cyclohexyl)acetamide]
IC50 [1]: 5900 nM | IC50 [2]: 230 nM | IC50 [3]: 14 nM | IC50 [4]: 2000 nM | IC50 [5]: 810 nM | IC50 [6]: 30 nM

CC(=O)NC1CCC(CC(=O)Nc2cnc(-c3ccc([C@]4(N)C[C@](C)(O)C4)cc3)c(-c3ccccc3)c2)CC1 (stereo partly drawn) [Example 2, 2-(trans-4-acetamidocyclohexyl)-N-(6-(4-(trans-1-amino-3-hydroxy-3-methylcyclobutyl)phenyl)-5-phenylpyridin-3-yl)acetamide]
IC50 [1]: 980 nM | IC50 [2]: 94 nM | IC50 [3]: 20 nM | IC50 [4]: 8700 nM | IC50 [5]: 4400 nM | IC50 [6]: 150 nM

CC(=O)N[C@H]1CC[C@H](CC(=O)Nc2cnc(-c3ccc(C4(N)CCC4)cc3)c(-c3ccccc3)c2)CC1 [Example A38, 2-(trans-4-acetamidocyclohexyl)-N-(6-(4-(1-aminocyclobutyl)phenyl)-5-phenylpyridin-3-yl)acetamide]
IC50 [1]: 10000 nM | IC50 [2]: 190 nM | IC50 [3]: 18 nM | IC50 [4]: > 5700 nM | IC50 [5]: 1600 nM | IC50 [6]: 120 nM

CCC(=O)N(C)[C@H]1CC[C@H](CC(=O)Nc2cc(-c3ccccc3)c(-c3ccc([C@]4(N)C[C@](C)(O)C4)cc3)nn2)CC1 [Example 83, N-(trans-4-(2-((6-(4-(trans-1-amino-3-hydroxy-3-methylcyclobutyl)phenyl)-5-phenylpyridazin-3-yl)amino)-2-oxoethyl)cyclohexyl)-N-methylpropionamide]
IC50 [1]: 2100 nM | IC50 [2]: 86 nM | IC50 [3]: 4 nM | IC50 [4]: 820 nM | IC50 [5]: 250 nM | IC50 [6]: 7 nM

COC(=O)N(C)[C@H]1CC[C@H](CC(=O)Nc2cc(-c3ccccc3)c(-c3ccc(C4(N)CC4)c(F)c3)nn2)CC1 [Example A104, Methyl (trans-4-(2-((6-(4-(1-aminocyclopropyl)-3-fluorophenyl)-5-phenylpyridazin-3-yl)amino)-2-oxoethyl)cyclohexyl)(methyl)carbamate]
IC50 [1]: > 30000 nM | IC50 [2]: 5600 nM | IC50 [3]: 200 nM | IC50 [4]: > 30000 nM | IC50 [5]: > 30000 nM | IC50 [6]: 1000 nM

NC1(c2ccc(-c3cnc(NC(=O)C[C@H]4CC[C@H](N5CCOC5=O)CC4)cc3-c3ccsc3)cc2)CCC1 [Example 70, N-(5-(4-(1-aminocyclobutyl)phenyl)-4-(thiophen-3-yl)pyridin-2-yl)-2-(trans-4-(2-oxooxazolidin-3-yl)cyclohexyl)acetamide]
IC50 [1]: > 30000 nM | IC50 [2]: 830 nM | IC50 [3]: 42 nM | IC50 [4]: > 30000 nM | IC50 [5]: 910 nM | IC50 [6]: 39 nM
